In US9987259B2 (priority 2011, dated 2018):

Target: human α7 nAChR (Homo sapiens (Human), UniProt P36544)
Assay: cell-based
Details: not given

human α7 nAChR, sequence (P36544 23-502 limits assumed): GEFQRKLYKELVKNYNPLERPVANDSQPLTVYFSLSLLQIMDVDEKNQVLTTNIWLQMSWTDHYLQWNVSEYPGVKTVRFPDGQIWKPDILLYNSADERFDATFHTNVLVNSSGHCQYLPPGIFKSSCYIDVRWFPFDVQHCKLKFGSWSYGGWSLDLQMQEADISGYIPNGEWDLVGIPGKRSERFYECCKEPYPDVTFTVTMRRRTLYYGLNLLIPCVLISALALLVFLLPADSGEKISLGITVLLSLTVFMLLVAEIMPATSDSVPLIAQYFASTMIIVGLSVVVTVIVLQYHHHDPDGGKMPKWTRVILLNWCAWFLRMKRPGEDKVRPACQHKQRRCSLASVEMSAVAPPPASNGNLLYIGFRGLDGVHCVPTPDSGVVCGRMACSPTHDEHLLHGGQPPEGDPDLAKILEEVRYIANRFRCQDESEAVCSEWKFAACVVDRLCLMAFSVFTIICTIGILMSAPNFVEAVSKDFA

Row | Structure (SMILES) | EC50 [nM]
1 | O=C(NC1CN2CCC1CC2)c1ccc(=O)n(-c2nccs2)c1 (centres unmarked) [Example 1, N-(1-azabicyclo[2.2.2]octan-3-yl)-6-oxo-1-(2-thiazolyl)-3-pyridinecarboxamide] | 100 to 500
2 | O=C(N[C@H]1CN2CCC1CC2)c1ccc(=O)n(-c2nccs2)c1 [Example 2, N-[(3R)-1-azabicyclo[2.2.2]octan-3-yl)-6-oxo-1-(2-thiazolyl)-3-pyridinecarboxamide] | 100 to 500
3 | O=C(N[C@@H]1CN2CCC1CC2)c1ccc(=O)n(-c2nccs2)c1 [Example 3, N-[(3S)-1-azabicyclo[2.2.2]octan-3-yl)-6-oxo-1-(2-thiazolyl)-3-pyridinecarboxamide] | 100 to 500
4 | O=C(NC1CN2CCC1CC2)c1ccc(=O)n(-c2ccc(-c3ccccc3)cn2)c1 (centres unmarked) [Example 7, N-(1-azabicyclo[2.2.2]octan-3-yl)-6-oxo-1-(5-phenyl-2-pyridine-1-yl)-3-pyridinecarboxamide] | 100 to 500
5 | Cc1cnc(-n2cc(C(=O)NC3CN4CCC3CC4)ccc2=O)s1 (centres unmarked) [Example 10, N-(1-azabicyclo[2.2.2]octan-3-yl)-1-(5-methyl-2-thiazolyl)-6-oxo-3-pyridinecarboxamide] | 100 to 500
6 | Cc1cnc(-n2cc(C(=O)N[C@@H]3CN4CCC3CC4)ccc2=O)s1 [Example 12, N-[(3S)-1-azabicyclo[2.2.2]octan-3-yl]-1-(5-methyl-2-thiazolyl)-6-oxo-3-pyridinecarboxamide] | 500 to 1000
7 | CCc1cnc(-n2cc(C(=O)NC3CN4CCC3CC4)ccc2=O)s1 (centres unmarked) [Example 13, N-(1-azabicyclo[2.2.2]octan-3-yl)-1-(5-ethyl-2-thiazolyl)-6-oxo-3-pyridinecarboxamide] | 100 to 500
8 | CCc1cnc(-n2cc(C(=O)N[C@@H]3CN4CCC3CC4)ccc2=O)s1 [Example 15, N-[(3S)-1-azabicyclo[2.2.2]octan-3-yl]-1-(5-ethyl-2-thiazolyl)-6-oxo-3-pyridinecarboxamide] | 100 to 500
9 | CCCc1cnc(-n2cc(C(=O)NC3CN4CCC3CC4)ccc2=O)s1 (centres unmarked) [Example 16, N-(1-azabicyclo[2.2.2]octan-3-yl)-6-oxo-1-(5-propyl-2-thiazolyl)-3-pyridinecarboxamide] | 100 to 500
10 | CC(C)c1cnc(-n2cc(C(=O)NC3CN4CCC3CC4)ccc2=O)s1 (centres unmarked) [Example 17, N-(1-azabicyclo[2.2.2]octan-3-yl)-6-oxo-1-(5-propan-2-yl-2-thiazolyl)-3-pyridinecarboxamide] | 100 to 500
11 | CC(C)c1cnc(-n2cc(C(=O)N[C@@H]3CN4CCC3CC4)ccc2=O)s1 [Example 19, N-[(3S)-1-azabicyclo[2.2.2]octan-3-yl)-6-oxo-1-(5-propan-2-yl-2-thiazolyl)-3-pyridinecarboxamide] | 100 to 500
12 | CC(C)(C)c1cnc(-n2cc(C(=O)NC3CN4CCC3CC4)ccc2=O)s1 (centres unmarked) [Example 20, N-(1-azabicyclo[2.2.2]octan-3-yl)-1-(5-tert-butyl-2-thiazolyl)-6-oxo-3-pyridinecarboxamide] | 100 to 500
13 | CC(C)(C)c1cnc(-n2cc(C(=O)N[C@H]3CN4CCC3CC4)ccc2=O)s1 [Example 21, N-[(3R)-1-azabicyclo[2.2.2]octan-3-yl]-1-[5-tert-butyl-2-thiazolyl]-6-oxo-3-pyridinecarboxamide] | 100 to 500
14 | CC(C)(C)c1cnc(-n2cc(C(=O)N[C@@H]3CN4CCC3CC4)ccc2=O)s1 [Example 22, N-[(3S)-1-azabicyclo[2.2.2]octan-3-yl]-1-[5-tert-butyl-2-thiazolyl]-6-oxo-3-pyridinecarboxamide] | 500 to 1000
15 | O=C(NC1CN2CCC1CC2)c1ccc(=O)n(-c2ncc(C3CCCC3)s2)c1 (centres unmarked) [Example 23, N-(1-azabicyclo[2.2.2]octan-3-yl)-1-(5-cyclopentyl-2-thiazolyl)-6-oxo-3-pyridinecarboxamide] | 100 to 500
16 | O=C(NC1CN2CCC1CC2)c1ccc(=O)n(-c2ncc(C3CCCCC3)s2)c1 (centres unmarked) [Example 24, N-(1-azabicyclo[2.2.2]octan-3-yl)-1-(5-cyclohexyl-2-thiazolyl)-6-oxo-3-pyridinecarboxamide] | 100 to 500
17 | O=C(NC1CN2CCC1CC2)c1ccc(=O)n(-c2ncc(-c3ccccc3)s2)c1 (centres unmarked) [Example 25, N-(1-azabicyclo[2.2.2]octan-3-yl)-1-(5-phenyl-2-thiazolyl)-6-oxo-3-pyridinecarboxamide] | 500 to 1000
18 | O=C(N[C@H]1CN2CCC1CC2)c1ccc(=O)n(-c2ncc(Cl)s2)c1 [Example 27, N-[(3R)-1-azabicyclo[2.2.2]octan-3-yl]-1-(5-chloro-2-thiazolyl)-6-oxo-3-pyridinecarboxamide] | 100 to 500
19 | O=C(NC1CN2CCC1CC2)c1ccc(=O)n(-c2ncc(Cc3ccccc3)s2)c1 (centres unmarked) [Example 29] | 100 to 500
20 | O=C(NC1CN2CCC1CC2)c1ccc(=O)n(-c2nc3ccccc3s2)c1 (centres unmarked) [Example 33, N-(1-azabicyclo[2.2.2]octan-3-yl)-1-(1,3-benzothiazole-2-yl)-6-oxo-3-pyridinecarboxamide] | 100 to 500

Same assay, conditions: HEK293T/17 cells transfected with human α7 nAChR and RIC3; with PNU-120596; fluorescence relative to 1 μM epibatidine; read-out: EC50 of human α7 nAChR

Row | Structure (SMILES) | EC50 [nM]
21 | O=C(NC1CN2CCC1CC2)c1ccc(=O)n(-c2ccc(Cl)cn2)c1 (centres unmarked) [Example 6, N-(1-azabicyclo[2.2.2]octan-3-yl)-1-(5-chloro-2-pyridinyl)-6-oxo-3-pyridinecarboxamide] | > 1000
22 | O=C(NC1CN2CCC1CC2)c1ccc(=O)n(-c2cc(-c3ccccc3)no2)c1 (centres unmarked) [Example 9, N-(1-azabicyclo[2.2.2]octan-3-yl)-6-oxo-1-[3-phenyl-5-isoxazolyl)-3-pyridinecarboxamide] | > 1000
23 | Cc1cnc(-n2cc(C(=O)N[C@H]3CN4CCC3CC4)ccc2=O)s1 [Example 11, N-[(3R)-1-azabicyclo[2.2.2]octan-3-yl]-1-(5-methyl-2-thiazolyl)-6-oxo-3-pyridinecarboxamide] | < 100
24 | CCc1cnc(-n2cc(C(=O)N[C@H]3CN4CCC3CC4)ccc2=O)s1 [Example 14, N-[(3R)-1-azabicyclo[2.2.2]octan-3-yl]-1-(5-ethyl-2-thiazolyl)-6-oxo-3-pyridinecarboxamide] | < 100
25 | CC(C)c1cnc(-n2cc(C(=O)N[C@H]3CN4CCC3CC4)ccc2=O)s1 [Example 18, N-[(3R)-1-azabicyclo[2.2.2]octan-3-yl)-6-oxo-1-(5-propan-2-yl-2-thiazolyl)-3-pyridinecarboxamide] | < 100
26 | O=C(NC1CN2CCC1CC2)c1ccc(=O)n(-c2ncc(Cl)s2)c1 (centres unmarked) [Example 26, N-(1-azabicyclo[2.2.2]octan-3-yl)-1-(5-chloro-2-thiazolyl)-6-oxo-3-pyridinecarboxamide] | < 100
27 | O=C(N[C@@H]1CN2CCC1CC2)c1ccc(=O)n(-c2ncc(Cl)s2)c1 [Example 28, N-[(3S)-1-azabicyclo[2.2.2]octan-3-yl]-1-(5-chloro-2-thiazolyl)-6-oxo-3-pyridinecarboxamide] | > 1000
28 | Cc1csc(-n2cc(C(=O)NC3CN4CCC3CC4)ccc2=O)n1 (centres unmarked) [Example 30, N-(1-azabicyclo[2.2.2]octan-3-yl)-1-(4-methyl-2-thiazolyl)-6-oxo-3-pyridinecarboxamide] | > 1000
29 | Cc1nnc(-n2cc(C(=O)NC3CN4CCC3CC4)ccc2=O)s1 (centres unmarked) [Example 42, N-(1-azabicyclo[2.2.2]octan-3-yl)-1-[5-methyl-1,3,4-thiadiazole-2-yl)-6-oxo-3-pyridinecarboxamide] | > 1000
